Reference: EP0115714A1, “Pharmaceutical composition with psychotropic dopaminergic action” (priority 1983, dated 1984)

What was measured:
[1] = tested on: catalepsie provoquée par la prochlorpérazine; experiment: Antagonism of the onset of prochlorperazine-induced catalepsy (cork test; predictive of antidepressant activity); assay type: in vivo, rats mâles Wistar; conditions: rats, prochlorperazine 10 mg/kg s.c. 1 h later, read 5 h after
Excerpt: L'activité antidépressive des composés de l'invention a été évaluée dans le test de l'antagonisme vis-à-vis de l'installation de la catalepsie provoquée par la prochlorrérazine (K. Bizière et al., Arzneimittel Forschung, 1982, 32 (II), 824).
Un composé représentatif de l'invention, à savoir le monomaléate de 2-(1-pipérazinyl)pyrimidine, a été administré par voie intrapéritonéale à des groupes de 10 rats mâles Wistar pesant 220-240 g; des animaux de contrôle ont été en même temps traités par du sérum physiologique. Une heure après, les animaux ont reçu, par voie sous-cutanée, de la prochlorpérazine à une dose de […]. Cinq heures après cette administration, le nombre d'animaux cataleptiques a été estimé par le test du bouchon. Ce test consiste à positionner les animaux de telle sorte qu'ils puissent maintenir pendant au moins 20 seconds leurs pattes en appui sur une colonne formée de trois bouchons de liège superposés (hauteur totale 11 cm). Les performances réalisées pour chaque groupe d'animaux ont été comparées à celles du croupe d'animaux témoins n'ayant reçu que le véhicule et la prochlorpérazine.
Le tableau II ci-dessous montre le pourcentage d'antagonisme de l'installation de la catalepsie provoquée par la prochlorpérazine.

[2] = tested on: toxicité de groupe due à l'amphétamine; experiment: Antagonism of amphetamine group toxicity (predictive of antipsychotic activity); assay type: in vivo, souris Charles River CD1; conditions: Mus musculus, ip; mice, compound i.p. 30 min before amphetamine 30 mg/kg i.p.; mortality over 24 h; confidence limits 10,1 - 26,7; read-out: DE50 (limites de confiance) d'antagonisme de la mortalité due à l'amphétamine
Excerpt: L'activité antipsychotique d'un composé représentatif, le monomaléate de 2-(1-pipérazinyl)pyrimidine, a été déterminée dans le test de l'antagonisme de la toxicité de groupe due à l'amphétamine (J.H. Burn et al., Arch. Int. Pharmacodyn. Ther. 1958, 113, 290).
Le moncmaléate de 2-(1-pipérazinyl)pyrimidine a été administré à des doses croissantes par voie intrapéritonéale à des lots de 10 souris Charles River CD1 pesant 20-22 g et groupées dans des cages de 22 cm de long, 12 cm de large et 12 cm de haute. Trente minutes après l'administration, on a injecté par voie intrapéritonéale de l'amphétamine à la dose de 30 mg/kg. La mortalité des animaux a été évaluée durant les 24 h qui ont suivi l'injection d'amphétamine et comparée, dans chaque groupe, à celle du groupe d'animaux témoins n'ayant reçu que le véhicule (sérum physiologique).
Le tableau I ci-dessous montre la dose efficace médiane (DE50) d'antagonisme de la mortalité due à l'amphétamine.

activité antifilariale = conditions: H.W. Stewart et al., J. Org. Chem. 1953, 18, 1478; cited from earlier work
[3] = H.W. Stewart et al., J. Org. Chem. 1953, 18, 1478; cited from earlier work

| Compound | % d'antagonisme de l'installation de la catalepsie provoquée par la prochlorpérazine ([1]; dose 0,1 mg/kg i.p.) [%] | % d'antagonisme de l'installation de la catalepsie provoquée par la prochlorpérazine ([1]; dose 1 mg/kg i.p.) [%] | ED50 [2] [mg/kg] | activité antifilariale (activité antifilariale) | activité analgésique [3] |
| --- | --- | --- | --- | --- | --- |
| c1cnc(N2CCNCC2)nc1 [2-(1-pipérazinyl)pyrimidine monomaléate, monomaléatede 2-(1-pipérazinyl)pyrimidine] | 20 | 80 | 16.5 |  |  |
| c1cnc(N2CCNCC2)nc1 [2-(l-pipérazinyl)pyrimidine] |  |  |  | aucun n'a montré d'activité | aucun n'a montré d'activité |
